“And” between values parts separate entries of the source, which are not always exact repeats. Equal values may be shown once.
Experiments:
GSK3 = experiment: Kinase inhibition under standard conditions, GSK3; format: biochemical
ERK2 = ERK2 (Homo sapiens, UniProt P28482); experiment: Kinase inhibition under standard conditions, ERK2; format: biochemical
OVCAR-3 xenograft = experiment: Mouse xenograft model OVCAR-3; format: in vivo; settings: Ovarian, p53; oral twice daily dosing
Protocol: (§1) The efficacy of the compound of the formula 1 was confirmed in mouse tumor xenograft models, employing the NMRI(nu/nu) strain of mice. For example, cells from the human tumor cell lines MDA-MB-231, U373, and HT29 were pre-incubated subcutaneously in several nude mice to select for the most robustly growing cell population. After having grown to a sufficient size after 2-3 weeks, a piece of about 2 mm^3 volume of the most suitable tumor was transplanted subcutaneously into the region of the thoracic mammary fat pads, an area ensuring a high degree of vascularization of the grafted tissue. […] During the course of the treatment, the weight of the animals and the size of the transplanted tumor was monitored three times a week. […] These doses are best determined separately for each individual mouse strain employed.
(§2) To establish a solid tumour 3×10^6 tumor cells suspended in 100 μl of serum free medium (RPMI) were inoculated subcutaneously into the region of the thoracic mammary fat pads of 5 Male NMRI(nu/nu) mice of 8-10 weeks of age. […] During the course of the treatment body weight changes and tumor growth were recorded three times a week. Growth curves were plotted together with standard deviations and the significance of differences was determined using an unpaired t-test in FIG. 11. […]

HT29 xenograft = experiment: Mouse xenograft model HT29; format: in vivo
Protocol: The efficacy of the compound of the formula 1 was confirmed in mouse tumor xenograft models, employing the NMRI(nu/nu) strain of mice. For example, cells from the human tumor cell lines MDA-MB-231, U373, and HT29 were pre-incubated subcutaneously in several nude mice to select for the most robustly growing cell population. After having grown to a sufficient size after 2-3 weeks, a piece of about 2 mm^3 volume of the most suitable tumor was transplanted subcutaneously into the region of the thoracic mammary fat pads, an area ensuring a high degree of vascularization of the grafted tissue. When tumors reached a diameter of about 3 mm mice were assigned to treatment groups with about equal average tumor sizes, and therapy was started. Application of the compound of the formula 1 was performed preferably by oral gavage twice daily for continuous exposure, with doses between 1 and 10 mg/kg of the compound of the formula 1 as a solid suspension in water, or in aqueous liquid formulations containing common adjuvants, like polyethylene glycols (PEG), preferentially in form of a salt with a physiologically applicable acid, including but not limited to hydrochloric acid, phosphoric acid, lactic acid, malonic acid, citric acid, etc. Other suitable adjuvants include but are not limited to polyvinyl pyrrolidone (Povidone) of varying average molecular weights. During the course of the treatment, the weight of the animals and the size of the transplanted tumor was monitored three times a week. For maximum efficacy, a daily treatment regimen was chosen at the maximally applicable dose, as defined by the absence of significant weight loss over the course of the treatment. These doses are best determined separately for each individual mouse strain employed.
To establish a solid tumour 3×10^6 tumor cells suspended in 100 μl of serum free medium (RPMI) were inoculated subcutaneously into the region of the thoracic mammary fat pads of 5 Male NMRI(nu/nu) mice of 8-10 weeks of age. After 3-4 weeks tumor bearing mice were killed by cervical dislocation and the tumor of one selected donor mouse was excised under sterile conditions. Vital tumor regions were cut into 2 mm^3 pieces, picked up by a trocar (13 ga), and transplanted subcutaneously into NMRI(nu/nu) of the same stock. The tumor grade of the transplanted tissue was checked by routine histopathology (HE staining). Tumor growth and body weight were registered weekly during tumor establishment. When subcutaneous tumors reached diameters of about 3 mm the animals were randomly assigned to a treatment and a vehicle control group, each consisting of 10-12 animals, and a therapeutic regimen was started comprising twice daily applications by oral gavage of 2.5 mg/kg of compound 1 in a vehicle of 50 mM (−)-lactic acid in 50% polyethylene glycol 400. During the course of the treatment body weight changes and tumor growth were recorded three times a week. Growth curves were plotted together with standard deviations and the significance of differences was determined using an unpaired t-test in FIG. 11. In untreated mice tumor areas had grown after 9 days by about 150%, while in the treated group average tumor areas had grown only by about 50% (P=0.012).

CDK1 = CDK1 (Homo sapiens, UniProt P06493); experiment: Kinase inhibition under standard conditions, CDK1; format: biochemical
Chain of CDK1 (P06493 whole entry, species assumed): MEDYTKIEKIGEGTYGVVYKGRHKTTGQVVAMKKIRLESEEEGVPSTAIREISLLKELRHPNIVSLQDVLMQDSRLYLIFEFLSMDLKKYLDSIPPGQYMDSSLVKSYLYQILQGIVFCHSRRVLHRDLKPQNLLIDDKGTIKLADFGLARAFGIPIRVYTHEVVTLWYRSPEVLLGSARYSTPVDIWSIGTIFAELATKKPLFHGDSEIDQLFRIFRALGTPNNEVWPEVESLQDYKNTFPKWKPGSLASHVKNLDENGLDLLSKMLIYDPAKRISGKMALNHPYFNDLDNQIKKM
Chain of CDK1 (P14635 whole entry partner, species assumed): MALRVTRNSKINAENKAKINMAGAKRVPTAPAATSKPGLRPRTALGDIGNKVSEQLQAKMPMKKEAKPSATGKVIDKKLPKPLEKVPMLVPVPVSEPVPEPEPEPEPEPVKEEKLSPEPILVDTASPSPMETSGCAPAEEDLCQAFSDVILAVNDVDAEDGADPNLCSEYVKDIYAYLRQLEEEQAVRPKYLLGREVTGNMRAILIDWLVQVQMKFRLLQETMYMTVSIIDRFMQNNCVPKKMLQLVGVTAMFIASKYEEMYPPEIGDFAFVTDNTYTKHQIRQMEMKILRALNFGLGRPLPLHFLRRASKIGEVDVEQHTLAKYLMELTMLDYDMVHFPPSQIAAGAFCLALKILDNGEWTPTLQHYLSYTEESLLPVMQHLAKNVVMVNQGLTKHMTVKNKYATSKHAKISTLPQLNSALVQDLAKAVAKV

U251 xenograft = experiment: Mouse xenograft model U251; format: in vivo; settings: Brain, CDKN2A/p53/PTEN; oral twice daily dosing
Protocol: as §1, §2

NCI-H23 xenograft = experiment: Mouse xenograft model NCI-H23; format: in vivo; settings: Lung, Ras/p53; oral twice daily dosing
Protocol: as §1, §2

[1] = molecular target: T1, ABC-G2 (breast cancer resistance protein BCRP) (Homo sapiens, UniProt Q9UNQ0); experiment: Competition with efflux of mitoxandrone in MCF-7 cells (FACS); format: cell-based
T1 construct: endogenous in cells; host or cells: MCF-7 cells
T1 sequence (Q9UNQ0 whole entry): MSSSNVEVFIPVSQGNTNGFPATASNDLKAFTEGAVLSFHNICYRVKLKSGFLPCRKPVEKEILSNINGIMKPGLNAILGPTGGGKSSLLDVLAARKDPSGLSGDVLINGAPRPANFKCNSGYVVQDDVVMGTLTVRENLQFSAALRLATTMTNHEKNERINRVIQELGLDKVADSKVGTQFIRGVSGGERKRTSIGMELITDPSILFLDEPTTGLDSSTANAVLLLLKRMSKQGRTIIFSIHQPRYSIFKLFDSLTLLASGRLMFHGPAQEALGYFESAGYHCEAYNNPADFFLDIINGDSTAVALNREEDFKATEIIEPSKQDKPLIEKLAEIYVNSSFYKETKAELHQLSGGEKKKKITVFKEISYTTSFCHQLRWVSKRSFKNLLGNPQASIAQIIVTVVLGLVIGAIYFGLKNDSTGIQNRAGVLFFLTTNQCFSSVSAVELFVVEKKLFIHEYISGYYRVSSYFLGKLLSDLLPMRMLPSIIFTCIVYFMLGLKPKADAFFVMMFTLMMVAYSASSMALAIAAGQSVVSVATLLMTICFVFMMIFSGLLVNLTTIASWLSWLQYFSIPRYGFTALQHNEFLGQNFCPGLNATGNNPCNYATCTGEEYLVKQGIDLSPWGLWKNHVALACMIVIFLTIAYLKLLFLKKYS
From the text: FIG. 6 compares the recognition of compound 1 and of the compound 6 by two frequently involved multi-drug resistance proteins ABC-B1 (glycoprotein gp170) (A), and ABC-G2 (breast cancer resistance protein BCRP) (B). Measurements were based on competition with the MDR-driven efflux of calcein-AM in Kb-V1 cells expressing high levels of gp170, or competition with the efflux of mitoxandrone in MCF-7 cells by the respective compounds within their effective concentration range. Uptake of fluorescent reporter compounds by competition with 1 or 6 was assessed by FACS as described in Mueller et al., Cancer Chemother. Pharmacol. 59, 157-164 (2007).

[2] = system: HT29 colon cancer cell line; experiment: Long-term growth inhibition, crystal violet staining; format: cell-based, human; settings: 10 nM
Protocol: For proliferation assays tumor cell suspensions (100 μl/well) were seeded into 96-well flat bottomed microtitration plates at a density of ca. 15 cells/microscopic field (magnification 320×). After 2-3 days the culture medium was removed by suction and replaced by fresh medium (200 μl/well) containing varying concentrations of the compound of the formula 1 or vehicle (0.5% DMSO). Compound 1 was added as […] concentrated feed solutions. On every plate 16 wells served as controls and 16 wells were used per concentration of 1. After various times of incubation the cells were fixed with glutardialdehyde and stored in a refrigerator. At the end of the assay all plates were processed simultaneously (staining with 0.02% aqueous crystal violet solution (100 μl/well). Excess dye was removed by rinsing the trays with water for 20 min. The stain bound by the cells was redissolved in 70% ethanol (180 μl/well) while shaking the microplates for about 3 hours. Absorbance (proportional to cell mass) was measured at 578 nm using a BIOTEK 309 Autoreader. The results (mean values±standard deviation) were plotted as growth curves.
The HT29 human colon cancer cell line (obtained from ATCC, Rockville, USA) was cultured as above. Treatment with the compound of the formula 1 and analysis of growth inhibition was performed analogous to Example 3.

[3] = Colon, Raf/PI3K/p53/APC, 2.5 mg/kg p.o. twice daily, 30 days

Chain of ERK2 (P28482 whole entry, species assumed): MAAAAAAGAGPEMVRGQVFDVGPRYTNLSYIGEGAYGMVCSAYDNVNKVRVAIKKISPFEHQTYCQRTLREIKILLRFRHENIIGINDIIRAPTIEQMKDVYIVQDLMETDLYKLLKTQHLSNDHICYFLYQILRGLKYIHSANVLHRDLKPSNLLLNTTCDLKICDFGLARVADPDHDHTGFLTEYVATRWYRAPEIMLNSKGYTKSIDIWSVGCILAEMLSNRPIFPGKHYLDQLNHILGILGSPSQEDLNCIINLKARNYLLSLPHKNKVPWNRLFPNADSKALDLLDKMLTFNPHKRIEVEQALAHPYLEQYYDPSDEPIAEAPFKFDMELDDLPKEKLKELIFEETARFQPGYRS

CNC(=O)[C@@]1(N)C[C@H]2O[C@]1(C)n1c3ccccc3c3c4c(c5c6ccccc6n2c5c31)C(=O)NC4 [Compound 1]
IC50 (GSK3): 1230 nM | IC50 (ERK2): 64 nM | Mean % Inhibition (OVCAR-3 xenograft): 78% | N tumors with no/neg. growth (OVCAR-3 xenograft): 4 of 11 | signs of organ toxicity in heart, lung, kidney, liver, duodenum, and colon (HT29 xenograft; 30 days of continuous treatment, all 11 animals): complete absence of any signs of organ toxicity | effect on body weight (HT29 xenograft; 30 days, 2.5 mg/kg p.o. twice daily): absence of any significant effect on body weight | irritation in the mucosal layers of duodenum and colon tissues (HT29 xenograft; 30 days, oral route): absence of any signs of irritation | Mean % Inhibition (HT29 xenograft; [3]): 70% | N tumors with no/neg. growth (HT29 xenograft; [3]): 2 out of 10 and 2 of 11 | growth of average tumor areas in treated group (HT29 xenograft; after 9 days, 2.5 mg/kg p.o. twice daily): about 50% | IC50 (CDK1): 43 nM | Mean % Inhibition (U251 xenograft): 74% | N tumors with no/neg. growth (U251 xenograft): 3 of 11 | Mean % Inhibition (NCI-H23 xenograft): 92% | N tumors with no/neg. growth (NCI-H23 xenograft): 5 of 10 | separation of anti-proliferative potency range from uptake concentration for efflux transporter, versus compound 6 [1]: more clearly separated | proliferation of HT29 cells [2]: sufficient to block the proliferation

Source: patent publication US8022056B2, “Compositions and methods for the treatment of cancer” (Tautatis, Inc, priority 2006, dated 2011)
